ChEMBL document CHEMBL1201862, “PubChem BioAssay data set” (2004)
The source made the active and inactive calls.

Key:
[1] = biological target: Voltage-dependent T-type calcium channel subunit alpha-1H (Homo sapiens, UniProt O95180); format: functional;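 also: channel activity triggered by adding a high calcium stimulation buffer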
Prothrombin = Prothrombin (Homo sapiens, UniProt P00734); test: Thrombin 1536 HTS Dose Response Confirmation. [Related pubchem assays: 1046 (Thrombin 1536 HTS; hits were confirmed in this assay)]; format: functional
[2] = growth suppression of beta-catenin-knockout colon cells, dose response, cell-based, HCT116, human colon tumor (AID 1045); format: functional;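 also: HCT116 colon tumor cells with beta catenin knocked out; cells exposed to compound for 60 hours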
[3] = growth suppression of PTEN-null colon cells, dose response, cell-based, HCT116 PTEN knockout (AID 1047); format: functional;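 also: HCT116 colon tumor cells with PTEN knocked out; cells exposed to compound for 60 hours before readout; potency for loss of cell viability measured by luminescence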
[4] = THP-1 cell cytotoxicity, dose response, cytotoxicity control for Vif-APOBEC3G degradation inhibitor project, THP-1 cells (AID 1117359); format: functional; settings: Human immunodeficiency virus 1, THP-1
[5] = cytotoxicity toward NIH3T3 fibroblasts, dose response, counter-screen, cell-based, ATP luminescence, mouse fibroblasts (AID 2010); format: functional;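 also: cells exposed to compound for about 90 hours before reading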
[6] = inhibitors of intracellular T. cruzi replication, confirmation, NIH3T3 host cells, beta-gal luminescence (AID 2044); format: functional, cell-based;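 also: intracellular parasites grown in NIH/3T3 mouse fibroblasts as host cells; luminescent beta-galactosidase reporter signal from transgenic T. cruzi replicating inside host cells; inhibitors lower the luminescence signal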
H9c2 = test: cells; format: functional, cell-based; settings: Rattus norvegicus, H9c2, Myocardium;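 also: confirmatory concentration-response retest of ultra-high-throughput screening hits for modulation of myocardial damage; cell death induced by hydrogen peroxide oxidative stress; compound pretreatment for 60 min then peroxide exposure for 2 h; potency is for protecting the cells against peroxide damage rather than for killing them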
Cytochrome P450 2D6 = Cytochrome P450 2D6 (Homo sapiens, UniProt P10635);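 also: CYP2D6 member of a cytochrome P450 panel assay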
Chain of Cytochrome P450 2D6 (P10635 whole entry): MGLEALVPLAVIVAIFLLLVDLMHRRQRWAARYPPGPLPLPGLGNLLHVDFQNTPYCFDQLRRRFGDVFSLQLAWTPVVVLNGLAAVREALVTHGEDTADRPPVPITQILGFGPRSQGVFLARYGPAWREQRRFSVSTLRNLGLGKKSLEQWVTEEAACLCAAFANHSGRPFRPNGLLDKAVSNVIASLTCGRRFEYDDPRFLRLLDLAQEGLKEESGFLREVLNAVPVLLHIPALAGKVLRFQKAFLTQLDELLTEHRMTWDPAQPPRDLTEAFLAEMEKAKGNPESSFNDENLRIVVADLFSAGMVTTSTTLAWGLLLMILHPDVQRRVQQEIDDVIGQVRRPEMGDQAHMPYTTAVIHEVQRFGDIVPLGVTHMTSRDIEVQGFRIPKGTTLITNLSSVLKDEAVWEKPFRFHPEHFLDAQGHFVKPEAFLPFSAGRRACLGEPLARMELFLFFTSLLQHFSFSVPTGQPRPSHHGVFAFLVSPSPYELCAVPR

Cytochrome P450 1A2 = biological target: T1, Cytochrome P450 1A2 (Homo sapiens, UniProt P05177);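 also: PubChem cytochrome P450 panel assay, CYP1A2 panel member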
T1 sequence (P05177 whole entry): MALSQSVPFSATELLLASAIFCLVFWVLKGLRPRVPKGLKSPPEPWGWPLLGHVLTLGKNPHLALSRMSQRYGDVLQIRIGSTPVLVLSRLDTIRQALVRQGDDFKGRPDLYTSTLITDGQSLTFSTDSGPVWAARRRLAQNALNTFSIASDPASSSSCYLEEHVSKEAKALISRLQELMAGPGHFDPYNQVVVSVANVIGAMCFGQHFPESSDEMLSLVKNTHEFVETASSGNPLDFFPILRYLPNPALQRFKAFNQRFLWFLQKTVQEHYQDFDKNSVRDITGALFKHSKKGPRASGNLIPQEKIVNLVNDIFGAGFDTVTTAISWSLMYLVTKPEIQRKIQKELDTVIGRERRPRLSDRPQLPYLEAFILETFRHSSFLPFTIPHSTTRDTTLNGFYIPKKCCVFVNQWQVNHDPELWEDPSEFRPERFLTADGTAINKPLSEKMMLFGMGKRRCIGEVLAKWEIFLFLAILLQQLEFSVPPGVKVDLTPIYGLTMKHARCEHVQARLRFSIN

[7] = Luminescence Cell-Based Dose Retest to Confirm Inhibitors of Cancer Stem Cells. [Related pubchem assays (depositor defined):AID2717, AID2721]; format: functional; settings: Homo sapiens
Protein RecA = biological target: T2, Protein RecA (Mycobacterium tuberculosis, UniProt P9WHJ3); test: Fluorescence Cell-Free Homogeneous Dose Retest to Identify Inhibitors of RecA-Intein Splicing Activity. [Related pubchem assays (depositor defined):AID2097, AID2223, AID489010, AID492950]; format: functional
T2 sequence (P9WHJ3 whole entry): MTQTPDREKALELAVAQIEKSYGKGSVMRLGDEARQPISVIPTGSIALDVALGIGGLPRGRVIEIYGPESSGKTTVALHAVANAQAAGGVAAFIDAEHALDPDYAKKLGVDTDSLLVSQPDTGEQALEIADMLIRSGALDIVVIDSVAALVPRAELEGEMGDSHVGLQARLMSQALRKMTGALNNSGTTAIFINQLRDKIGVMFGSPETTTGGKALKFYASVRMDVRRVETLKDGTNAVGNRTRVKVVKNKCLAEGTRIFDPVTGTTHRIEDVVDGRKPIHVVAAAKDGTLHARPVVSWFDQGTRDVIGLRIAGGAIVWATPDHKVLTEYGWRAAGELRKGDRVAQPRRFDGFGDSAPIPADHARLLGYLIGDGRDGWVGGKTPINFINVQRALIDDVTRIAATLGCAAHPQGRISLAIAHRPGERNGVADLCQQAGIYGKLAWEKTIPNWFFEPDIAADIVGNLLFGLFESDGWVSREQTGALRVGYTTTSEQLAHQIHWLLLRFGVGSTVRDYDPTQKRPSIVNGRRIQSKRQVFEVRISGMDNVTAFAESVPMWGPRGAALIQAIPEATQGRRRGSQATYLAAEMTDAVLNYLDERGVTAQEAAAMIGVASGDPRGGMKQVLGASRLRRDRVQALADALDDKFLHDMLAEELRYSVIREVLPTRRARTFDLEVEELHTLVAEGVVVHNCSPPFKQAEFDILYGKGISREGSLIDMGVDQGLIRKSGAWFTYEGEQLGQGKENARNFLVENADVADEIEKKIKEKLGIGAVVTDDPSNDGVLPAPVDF

[8] = biological target: T3, Replicative DNA helicase DnaB (Mycobacterium tuberculosis, UniProt P9WMR3); test: DnaB intein splicing inhibitors, dose response, biochemical, cell-free fluorescence (AID 449749); format: functional
T3 sequence (P9WMR3 whole entry): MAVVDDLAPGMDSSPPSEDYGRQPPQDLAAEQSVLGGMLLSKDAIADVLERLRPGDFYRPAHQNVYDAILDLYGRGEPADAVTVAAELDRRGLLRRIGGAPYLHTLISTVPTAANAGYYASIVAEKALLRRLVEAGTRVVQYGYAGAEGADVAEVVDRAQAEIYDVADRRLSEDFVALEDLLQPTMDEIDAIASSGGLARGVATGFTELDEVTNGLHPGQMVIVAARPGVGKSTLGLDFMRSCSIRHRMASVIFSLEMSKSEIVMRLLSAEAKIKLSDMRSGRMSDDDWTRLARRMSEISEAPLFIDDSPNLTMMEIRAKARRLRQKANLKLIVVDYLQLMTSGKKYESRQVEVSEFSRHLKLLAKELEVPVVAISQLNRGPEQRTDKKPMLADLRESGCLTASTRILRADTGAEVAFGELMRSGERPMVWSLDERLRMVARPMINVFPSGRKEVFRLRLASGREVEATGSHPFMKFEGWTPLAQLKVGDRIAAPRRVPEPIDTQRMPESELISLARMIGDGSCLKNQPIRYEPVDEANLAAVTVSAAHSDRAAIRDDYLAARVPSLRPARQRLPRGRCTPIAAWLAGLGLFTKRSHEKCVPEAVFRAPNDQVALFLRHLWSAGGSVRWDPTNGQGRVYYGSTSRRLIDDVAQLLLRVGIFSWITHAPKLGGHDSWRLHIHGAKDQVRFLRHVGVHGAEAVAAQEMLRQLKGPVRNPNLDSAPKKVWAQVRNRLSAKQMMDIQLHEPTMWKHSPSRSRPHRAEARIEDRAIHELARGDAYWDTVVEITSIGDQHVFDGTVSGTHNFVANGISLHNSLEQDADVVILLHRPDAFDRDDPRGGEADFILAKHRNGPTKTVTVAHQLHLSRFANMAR

cells = format: functional, cell-based; settings: HEK-CNG
Galanin receptor type 3 = biological target: T4, Galanin receptor type 3 (Homo sapiens, UniProt O60755); test: Fluorescence-based cell-based primary high throughput dose response assay to identify antagonists of the Galanin Receptor 3 (GalR3).; format: functional
T4 sequence (O60755 whole entry): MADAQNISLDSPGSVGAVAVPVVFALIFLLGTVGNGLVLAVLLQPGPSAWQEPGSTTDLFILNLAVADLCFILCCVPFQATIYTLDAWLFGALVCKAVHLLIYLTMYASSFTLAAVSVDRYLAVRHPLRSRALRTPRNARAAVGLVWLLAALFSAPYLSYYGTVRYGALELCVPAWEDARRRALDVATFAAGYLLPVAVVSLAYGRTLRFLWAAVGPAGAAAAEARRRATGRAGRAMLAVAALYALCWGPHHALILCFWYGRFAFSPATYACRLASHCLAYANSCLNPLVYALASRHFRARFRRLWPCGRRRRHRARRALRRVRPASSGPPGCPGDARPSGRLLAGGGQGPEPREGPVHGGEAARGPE

[9] = cytotoxicity in HEK-293T cells, dose response, cytotoxicity control for TCR NF-kB inhibitor project, luminescence, T-cell screen hits (AID 489026); format: functional, cell-based;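 also: cells exposed to compound about 14 hours before the viability readout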
INS1 = test: beta cell apoptosis inhibitors, cytokine rescue, dose response, luminescence, retest (AID 449756); format: functional, cell-based; settings: Rattus norvegicus;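 also: cell death triggered by IL-1 beta plus TNF-alpha plus IFN-gamma mixture; protective hits raise ATP signal compared with cytokine alone wells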
[10] = inhibitors of clade B AD8 Env fusion, dose response, cell-based, cherry-pick (AID 652062); format: functional;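 also: luciferase signal from cell-cell fusion driven by HIV-1 clade B AD8 Env; potency is for inhibitors of fusion seen as a drop in luminescence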
[11] = inhibitors of HIV Env-driven cell fusion, dose response, cherry-pick (AID 652057); format: functional, cell-based
[12] = off-target signal loss in HeLa-CEM21 co-culture – HeLa F-luc CTL cells, cherry-picked, counter-screen for HIV-1 Env fusion inhibitor project, dose response (AID 652040); format: functional, cell-based;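 also: potency for signal decrease marking cytotoxic or nonspecific inhibition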
[13] = ZM109 Env clade C HIV-1 fusion inhibitors, dose response, HeLa effector, CEM target cells, luciferase, cherry-pick (AID 652058); format: functional, cell-based
[14] = system: Streptococcus sp. 'group A'; test: growth inhibition of control SK(-) GAS strain, dose response, counter-screen for streptokinase expression inhibitor project, luminescence, kanamycin, BacTiterGlo, confirmation (AID 1900); format: functional, organism-based
Streptococcus = test: Group A Streptococcus viability loss, dose response, counter-screen for streptokinase expression inhibitor project, luminescence, BacTiterGlo (AID 1915); format: functional, organism-based;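 also: potency for reduction of bacterial viability or growth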

Chain of Voltage-dependent T-type calcium channel subunit alpha-1H (O95180 whole entry): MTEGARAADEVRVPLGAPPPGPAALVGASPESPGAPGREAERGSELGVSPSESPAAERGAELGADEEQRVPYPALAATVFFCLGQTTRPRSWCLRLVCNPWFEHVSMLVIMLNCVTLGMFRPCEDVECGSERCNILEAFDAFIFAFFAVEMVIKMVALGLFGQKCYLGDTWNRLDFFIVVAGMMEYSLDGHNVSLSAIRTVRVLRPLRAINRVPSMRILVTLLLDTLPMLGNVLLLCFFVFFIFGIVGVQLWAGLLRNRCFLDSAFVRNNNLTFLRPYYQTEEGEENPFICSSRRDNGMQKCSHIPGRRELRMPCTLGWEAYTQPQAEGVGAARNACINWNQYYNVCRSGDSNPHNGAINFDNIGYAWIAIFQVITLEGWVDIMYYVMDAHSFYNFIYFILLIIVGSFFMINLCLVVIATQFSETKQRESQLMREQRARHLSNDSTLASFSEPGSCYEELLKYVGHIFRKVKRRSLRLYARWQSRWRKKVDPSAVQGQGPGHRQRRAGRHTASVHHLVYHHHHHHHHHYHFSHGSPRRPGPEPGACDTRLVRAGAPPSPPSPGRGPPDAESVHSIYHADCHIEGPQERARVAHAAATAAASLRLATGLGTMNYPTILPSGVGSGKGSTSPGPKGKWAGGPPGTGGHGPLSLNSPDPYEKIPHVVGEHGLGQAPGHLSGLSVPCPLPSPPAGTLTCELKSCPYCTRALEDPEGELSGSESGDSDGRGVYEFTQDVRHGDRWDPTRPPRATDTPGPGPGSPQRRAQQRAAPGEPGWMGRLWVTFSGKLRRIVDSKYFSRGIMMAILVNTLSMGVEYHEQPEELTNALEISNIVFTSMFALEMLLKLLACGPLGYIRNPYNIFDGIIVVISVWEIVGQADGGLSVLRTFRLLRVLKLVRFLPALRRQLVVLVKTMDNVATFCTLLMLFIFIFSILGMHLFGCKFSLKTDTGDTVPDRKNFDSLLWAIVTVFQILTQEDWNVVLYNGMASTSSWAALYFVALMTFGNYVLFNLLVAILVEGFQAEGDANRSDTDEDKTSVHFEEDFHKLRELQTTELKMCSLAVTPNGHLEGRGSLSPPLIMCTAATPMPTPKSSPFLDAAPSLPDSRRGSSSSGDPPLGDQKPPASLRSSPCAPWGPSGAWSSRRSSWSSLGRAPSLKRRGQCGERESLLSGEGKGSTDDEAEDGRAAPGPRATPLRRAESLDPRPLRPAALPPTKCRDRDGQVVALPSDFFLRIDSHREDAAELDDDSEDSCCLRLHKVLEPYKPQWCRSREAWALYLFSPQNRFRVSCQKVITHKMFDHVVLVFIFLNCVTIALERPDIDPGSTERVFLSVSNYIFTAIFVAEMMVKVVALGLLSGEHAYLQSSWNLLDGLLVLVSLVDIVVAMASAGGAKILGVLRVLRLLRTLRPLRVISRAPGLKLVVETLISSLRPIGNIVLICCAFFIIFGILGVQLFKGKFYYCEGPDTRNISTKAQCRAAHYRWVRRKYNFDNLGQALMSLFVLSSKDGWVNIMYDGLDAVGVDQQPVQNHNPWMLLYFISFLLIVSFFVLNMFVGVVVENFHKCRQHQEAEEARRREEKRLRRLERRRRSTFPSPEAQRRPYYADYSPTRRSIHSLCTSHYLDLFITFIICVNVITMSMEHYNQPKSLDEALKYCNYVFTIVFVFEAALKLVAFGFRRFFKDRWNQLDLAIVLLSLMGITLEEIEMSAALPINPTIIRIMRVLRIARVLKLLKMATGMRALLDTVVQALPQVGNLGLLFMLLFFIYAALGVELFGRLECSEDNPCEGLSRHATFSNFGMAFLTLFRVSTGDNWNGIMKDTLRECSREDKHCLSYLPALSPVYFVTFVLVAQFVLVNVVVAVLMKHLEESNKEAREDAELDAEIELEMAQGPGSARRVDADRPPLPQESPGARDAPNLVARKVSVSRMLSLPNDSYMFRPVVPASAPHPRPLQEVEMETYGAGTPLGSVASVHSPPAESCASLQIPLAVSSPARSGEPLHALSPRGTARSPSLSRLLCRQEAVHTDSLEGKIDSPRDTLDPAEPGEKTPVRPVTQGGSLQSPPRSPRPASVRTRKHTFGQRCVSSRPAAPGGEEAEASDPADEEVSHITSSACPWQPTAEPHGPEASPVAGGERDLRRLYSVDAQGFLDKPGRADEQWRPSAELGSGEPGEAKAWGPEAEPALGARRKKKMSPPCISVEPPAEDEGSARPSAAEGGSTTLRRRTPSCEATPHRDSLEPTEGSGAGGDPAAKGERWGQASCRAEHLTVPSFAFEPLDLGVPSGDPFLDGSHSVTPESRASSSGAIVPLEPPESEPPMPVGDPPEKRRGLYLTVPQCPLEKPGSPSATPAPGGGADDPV

Cc1ccccc1NC(=O)c1ccc(CN2CCC(Cc3ccccc3)CC2)cc1
EC50 [1]: 0.134 µM (active)

O=C(O)C1CCN(c2ccc(Cl)nn2)CC1
IC50 (Prothrombin): > 50 µM (not active)

CCOC(=O)C(C)Sc1cc(CS(=O)(=O)c2ccccc2)nc(-c2ccccc2)n1 (centres undefined)
EC50 [1]: 8.17 µM (active)

COc1ccc(-c2nc(C#N)c(NCc3ccccc3Cl)o2)cc1OC
EC50 [2]: 29.1 µM (active) | EC50 [3]: 25.1 µM (active) | CC50 [4]: > 40 µM (active)

Nc1nc2ccccc2n1C(=O)c1ccco1
IC50 (Prothrombin): > 50 µM (not active)

O=C(Nc1nc(-c2cccs2)cs1)c1ccc(S(=O)(=O)N2CCCCC2)cc1
EC50 [1]: 3.4 µM (active)

COC(=O)c1ccc(C(=O)NC(=S)Nc2ccc3nc(SC)sc3c2)cc1
EC50 [2]: 5.03 µM (active) | EC50 [3]: 5.26 µM (active)

O=C(Nc1ccc(F)cc1F)c1ccc(-n2cncn2)nc1
IC50 (Prothrombin): > 50 µM (not active)

COc1ccc(C(=O)Nc2cc(C)nn2-c2nc3ccccc3[nH]2)c(OC)c1
EC50 [5]: > 60 µM (not active) | EC50 [6]: 2.51 µM (active) | IC50 (H9c2): 7.52 µM (active)

CC(=O)Oc1ccc2ccccc2c1C(NC(=O)Cc1ccccc1)c1ccc(Cl)cc1 (centres undefined)
AC50 (Cytochrome P450 2D6): 11.2 µM (inconclusive) | AC50 (Cytochrome P450 1A2): 6.31 µM (inconclusive) | EC50 [2]: 21.1 µM (active) | EC50 [3]: 18.6 µM (active) | AC50 [7]: 3.12 µM (active) | EC50 (Protein RecA): 31.6 µM (active) | AC50 [8]: 3.27 µM (active)

Cc1ccc2[nH]c(SCCCCOc3ccccc3)nc2c1
EC50 [1]: 2.25 µM (active)

COc1ccccc1NC(=O)c1sc2ncn(Cc3ccc(C)cc3)c(=O)c2c1C
IC50 (Prothrombin): > 50 µM (not active)

Cn1c(CNc2cccc(Cl)c2)nnc1SCC(=O)OC1CCCCC1
EC50 [1]: 2.53 µM (active)

Cc1ccc(Oc2nnc(-c3ccccc3)c3ccccc23)cc1
EC50 [2]: 75.9 µM (active) | EC50 [3]: 75.7 µM (active)

CC(C)(C)c1ccc(C(=O)Nc2ccc(Oc3cccnc3)nc2)cc1
EC50 (cells): > 29.9 µM (inactive) | IC50 (Galanin receptor type 3): 1.33 µM (active) | IC50 [9]: 50.1 µM (inactive)

Cc1c(-c2ccccc2)oc2c(C(=O)OCC(=O)Nc3ccc(C(N)=O)cc3)cccc2c1=O
IC50 (H9c2): > 79 µM (inactive)

COc1ccc(-c2ccc(CCC(=O)O)n2-c2ccccc2O)cc1
IC50 (Prothrombin): 10.5 µM (active)

CN1CCN(c2ccc(CNS(=O)(=O)Cc3cccc(C(F)(F)F)c3)cc2)CC1
EC50 (cells): > 29.9 µM (inactive) | IC50 (Galanin receptor type 3): 2.08 µM (active) | AC50 (INS1): 4.36 µM (active)

O=C(Cn1[nH]c(=O)c2ccccc2c1=O)N1CCN(S(=O)(=O)c2ccc(Cl)cc2)CC1
IC50 (H9c2): > 79 µM (inactive)

COc1ccc2nc(O)c(CN(Cc3nnnn3Cc3ccccc3)CC3CCCO3)cc2c1 (centres undefined)
AC50 [10]: 33.1 µM (active) | IC50 (H9c2): 16.5 µM (active) | AC50 [11]: 4.18 µM (active) | AC50 [12]: 7.73 µM (active) | AC50 [13]: 5.31 µM (active)

O=C(COC(=O)c1[nH]nc2ccccc12)NCCc1ccc(Cl)cc1
EC50 (cells): > 29.9 µM (inactive) | IC50 (Galanin receptor type 3): 2.87 µM (active)

Oc1ccc2c(c1)nc(O)c1ccccc12
IC50 (H9c2): > 79 µM (inactive)

Clc1ccc2c(N/N=C/c3cccc(Br)c3)ccnc2c1
EC50 [14]: 3.24 µM (active) | EC50 [2]: 4.89 µM (active) | EC50 [3]: 4.59 µM (active) | EC50 (Streptococcus): 4.4 µM (active) | AC50 [7]: 5.63 µM (active) | AC50 (INS1): 7.17 µM (active)
